Experimental data taken from PubChem BioAssay (NCI).
Where “and” joins values, the source holds several entries; their conditions need not be identical. Equal entries are not always repeated.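 Following 48 hours of exposure in 96-well plates, responses at five concentrations were used to interpolate endpoints linearly. GI50 = concentration required for 50% inhibition of growth. TGI is the concentration that stops growth completely.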

Tests used:
Assay in all cases: NCI anticancer screen, dose series, 48 h
[1] = tested on: DU-145 prostate
[2] = tested on: HCT-15 colon
[3] = tested on: HT29 colon
[4] = tested on: MCF7 breast
[5] = tested on: OVCAR-4 ovarian
[6] = tested on: OVCAR-5 ovarian
[7] = tested on: SK-MEL-2 melanoma
[8] = tested on: SN12C renal
[9] = tested on: U251 CNS
[10] = tested on: UO-31 renal

| Structure (SMILES) | TGI [1] [µM] | GI50 [2] | TGI [2] [µM] | TGI [3] [µM] | TGI [4] [µM] | TGI [5] [µM] | TGI [6] [µM] | TGI [7] | TGI [8] [µM] | GI50 [9] | TGI [9] | TGI [10] | GI50 [1] [µM] | GI50 [3] [µM] | GI50 [4] [µM] | GI50 [5] [µM] | GI50 [6] [µM] | GI50 [7] [µM] | GI50 [8] [µM] | GI50 [10] [µM] |
| --- | --- | --- | --- | --- | --- | --- | --- | --- | --- | --- | --- | --- | --- | --- | --- | --- | --- | --- | --- | --- |
| COc1cc(Nc2nc3ccccc3nc2NS(=O)(=O)c2ccc(NC(=O)c3ccc(C)c(OC)c3)cc2)cc(OC)c1 | > 100 | 4.97 µM and 19.9 µM and 2 µM | > 100 | > 100 | > 100 | > 100 | > 100 | 22.6 µM and 32.8 µM and 3.83 µM | > 100 | 3.71 µM and 12 µM and 2.27 µM | 34.7 µM and 33.5 µM and > 10 µM | 9.07 µM and 46.1 µM and > 5.04 µM | – | – | – | – | – | – | – | – |
| O=C1NC(=O)C(c2ccccc2Cl)=C1Nc1cc(Cl)c(O)c(Cl)c1 | > 25 | 15 µM | > 25 | > 25 | > 25 | > 25 | > 25 | > 25 µM | > 25 | 13.3 µM | > 25 µM | > 25 µM | > 25 | 14.2 | > 13.8 | 13.7 | > 25 | 12 | > 21.5 | > 23.4 |
| O=C(O)Cc1cc(=O)[nH]c2c1/C(=N/O)CCC2 | – | – | > 100 | > 100 | – | – | > 100 | > 100 µM | > 100 | – | > 100 µM | > 100 µM | – | – | – | – | – | – | – | – |
| O=C(Nc1ccc(Cl)cc1Cl)C1C(=O)C(=O)N(c2ccc(Cl)cc2Cl)C1=O (stereo not drawn) | – | – | > 100 | > 100 | – | > 100 | > 100 | – | > 100 | – | > 100 µM | > 100 µM | – | – | – | – | – | – | – | – |
| CC(=O)CC(N)=O | – | – | > 100 | > 100 | – | > 100 | > 100 | > 100 µM | > 100 | – | > 100 µM | > 100 µM | – | – | – | – | – | – | – | – |
| COc1ccc(NC(=O)CC/C(CC(=O)C(C)(C)C)=N\NC(=O)C(=O)NN)cc1 | – | – | > 100 | > 100 | – | > 100 | > 100 | > 100 µM | > 100 | – | > 100 µM | > 100 µM | – | – | – | – | – | – | – | – |
| C=C(C#N)C1OCC2OC(C)(C)OC21 (stereo not drawn) | – | – | 35.3 | > 100 | – | 33.6 | 33.9 | 77.2 µM | 38.2 | – | > 100 µM | > 100 µM | – | – | – | – | – | – | – | – |
| CCOC(=O)/C(=C\c1ccc(N(CCC#N)CCC#N)cc1)NC(=O)c1cc([N+](=O)[O-])ccc1Cl | – | – | > 100 | > 100 | – | > 100 | > 100 | > 100 µM | > 100 | – | > 100 µM | > 100 µM | – | – | – | – | – | – | – | – |
| COc1ccc(/C(=N\NC(=O)C(=O)NN)C(c2ccc(OC)cc2)C2(O)C(=O)Nc3ccccc32)cc1 (stereo not drawn) | – | – | > 100 | > 100 | – | – | > 100 | > 100 µM | > 100 | – | > 100 µM | 82.1 µM | – | – | – | – | – | – | – | – |
| COC(=O)C1=C(O)c2cc(-c3ccccc3)c(-c3ccccc3)c(C#N)c2NC(=O)C1 | – | – | > 100 | > 100 | – | > 100 | – | > 100 µM | > 100 | – | > 100 µM | > 100 µM | – | – | – | – | – | – | – | – |
| Cc1cccc(C)c1CO | – | – | > 100 | > 100 | – | > 100 | > 100 | > 100 µM | > 100 | – | > 100 µM | > 100 µM | – | – | – | – | – | – | – | – |
| O=C(O)NC(c1ccccc1)C(NC(=O)c1ccccc1)c1ccccc1 (stereo not drawn) | – | – | > 100 | > 100 | – | > 100 | > 100 | > 100 µM | > 100 | – | > 100 µM | – | – | – | – | – | – | – | – | – |
| CC1=C(C(=O)Nc2ccc(Cl)c(Cl)c2)C(c2cccc(Cl)c2)NC(=O)N1 (stereo not drawn) | 14.3 | 9.06 µM | 19.2 | – | 13.5 | > 50 | 30.9 | 19.3 µM | 16.8 | 8.32 µM | 17 µM | 15.9 µM | 7.58 | – | 2.11 | 14.1 | 11.2 | 9.95 | 8.53 | 8.2 |
| O=C1[C@H]2ON(c3ccccc3)C(c3ccccc3)[C@H]2C(=O)N1c1ccc(Cc2ccc(N3C(=O)[C@@H]4ON(c5ccccc5)C(c5ccccc5)[C@@H]4C3=O)cc2)cc1 (stereo partly drawn) | – | – | > 100 | > 100 | – | > 100 | > 100 | > 100 µM | > 100 | – | > 100 µM | > 100 µM | – | – | – | – | – | – | – | – |
| C#CCOCn1cnc2c(Sc3c([N+](=O)[O-])ncn3C)ncnc21 | – | – | > 100 | > 100 | – | > 100 | > 100 | > 100 µM | > 100 | – | > 100 µM | > 100 µM | – | – | – | – | – | – | – | – |
| CC(=O)[CH-]C(=O)c1ccccc1.CC(=O)[CH-]C(=O)c1ccccc1.CC(C)CCCC(C)[C@H]1CCC2[C@@H]3CC=C4C[C@@H]([O-])CC[C@]4(C)C3CC[C@@]21C.CC(C)CCCC(C)[C@H]1CCC2[C@@H]3CC=C4C[C@@H]([O-])CC[C@]4(C)C3CC[C@@]21C.[Ti+4] (stereo partly drawn) | – | > 100 µM | > 100 | > 100 | – | > 100 | – | > 100 µM | > 100 | > 100 µM | > 100 µM | > 100 µM | – | > 100 | – | > 100 | – | > 100 | > 100 | > 100 |
| CC(C)(C)CC(C)(C)c1cc2c(O)c(c1)Cc1cc(C(C)(C)CC(C)(C)C)cc(c1O)Cc1cc(C(C)(C)CC(C)(C)C)cc(c1O)Cc1cc(C(C)(C)CC(C)(C)C)cc(c1O)Cc1cc(C(C)(C)CC(C)(C)C)cc(c1O)C2 | – | – | > 100 | > 100 | – | > 100 | > 100 | > 100 µM | > 100 | – | > 100 µM | > 100 µM | – | – | – | – | – | – | – | – |
| O=C1C=CC(=O)C12CCc1ccccc12 | – | – | > 100 | > 100 | – | > 100 | > 100 | > 100 µM | > 100 | – | > 100 µM | > 100 µM | – | – | – | – | – | – | – | – |
| CN1CC(=O)N(C)c2ncn(Cc3ccccc3)c2C1=O | – | – | > 100 | > 100 | – | > 100 | – | – | > 100 | – | > 100 µM | > 100 µM | – | – | – | – | – | – | – | – |
| CN(C)CCNC(=O)c1cccc2nc3cc(Cl)ccc3nc12 | – | – | 11.5 | 6.22 | – | 8.54 | 7.62 | 7.57 µM | 10.7 | – | 12.4 µM | > 29.1 µM | – | – | – | – | – | – | – | – |
| CC(=O)OC1CCn2nnc(CO)c21 (stereo not drawn) | – | – | > 100 | > 100 | – | > 100 | > 100 | > 100 µM | > 100 | – | > 100 µM | > 100 µM | – | – | – | – | – | – | – | – |
